SMILES strings stand for the structures. Values joined by “and” are separate entries in the source; they are usually repeats but may differ in a detail not shown here. Equal entries are not always repeated.

The test has as its system 276233-004-R-J1-PDC complex spheroid viability. The test is described as follows: Anticancer human tumor 276233-004-R-J1-PDC patient-derived colon adenocarcinoma cell line growth inhibition [GQUAD]. As to conditions: for viability, T/C: stronger effect = lower value. From the text:
DNA G-quadruplex Stabilizer Agents in Combinations in Complex Spheroids
A high-throughput screen of multi-cell type tumor spheroids was designed to identify active combinations of DNA G-quadruplex stabilizer agents and targeted small molecules. Complex spheroids include a stromal component modeled by human endothelial cells (HUVEC) and fibroblasts modeled by human mesenchymal stem cells (MSCs). The concentration ranges selected for each drug and investigational agent were based upon clinically achievable concentrations if the clinical Cmax of the agent was known.
Compounds. The drugs and investigational agents: pidnarulex (CX-5461; NSC782164), APTO-253 (NSC789042), BRACO-19 (NSC847499), peposertib (NSC802822), ceralasertib (NSC780249), elimusertib (NSC800525), camonsertib (NSC841442), AZD-1390 (NSC803789), olaparib (NSC753686), talazoparib (NSC767125), ART-558 (NSC835418), sotorasib (NSC818433), MRTX-1133 (NSC836407), SN-38 (NSC673596), topotecan (NSC609699), etoposide (NSC141540), doxorubicin (NSC123127), gemcitabine (NSC613327), 5-fluorouracil (NSC19893), paclitaxel (NSC125973), vemurafenib (NSC761431), panobinostat (NSC761190), R-306465 (JNJ-16241199; NSC773264), adavosertib (NSC754352), TP-3654 (NSC805149), carboplatin (NSC241240), KSQ-4279 (NSC840948), and staurosporine (NSC755774) were obtained from the National Cancer Institute (NCI) Developmental Therapeutics Program Chemical Repository (34). The FDA-approved anticancer drug set is available from the NCI Developmental Therapeutics Program. […] The stock solutions were prepared in dimethyl sulfoxide (DMSO, Sigma-Aldrich, St. Louis, MO, cat. D2650) at 800-fold the tested concentration and stored at -70 degrees C prior to their use. All drugs and investigational agents were tested over a range starting from a high concentration at or near the clinical Cmax and decreasing in half-log increments. If the clinical Cmax for an agent had not been determined, the highest concentration tested was 10 microM.
2.3 Cell Culture. All cells were maintained in an incubator at 37 degrees C and 5% CO2 with 95% humidity. The PDC lines were cultured according to standard operating procedures established by the NCI PDMR. All PDCs were thawed and cultured in Matrigel-coated flasks prepared with a working solution of 1X Ham's F-12 nutrient mix, without supplementation (Invitrogen, cat. 11765054), 100 U/mL penicillin-streptomycin (Invitrogen, cat. 15140122), and 2.5% Matrigel (Corning Inc., cat. 354248) for the first three passages. The 857933-349-R-J2-PDC line was cultured in 6C/Colon 1B media, which includes advanced DMEM/F-12 (Thermo Fisher Scientific, cat. 12634028), 10 mM HEPES (Thermo Fisher Scientific, cat. 15630080), 1X GlutaMAX supplement (Thermo Fisher Scientific, cat. 35050061), 0.1 mg/mL primocin (InvivoGen, cat. ant-pm-2), 10% defined fetal bovine serum, heat inactivated (HyClone Laboratories Inc., cat. SH30070.03HI), 50% L-WRN conditioned media (ATCC, cat. CRL-3276), 1.25 mM N-Acetyl-L-cysteine (Sigma-Aldrich, cat. A9165), 10 mM nicotinamide (Sigma-Aldrich, cat. N0636), 1X B-27 supplement (Thermo Fisher Scientific, cat. 17504044), 1X N-2 supplement (Thermo Fisher Scientific, cat. 17502048), 10 microM Y-27632 dihydrochloride (Tocris Bioscience, cat. 1254), and 50 ng/mL human EGF recombinant protein (Thermo Fisher Scientific, cat. PHG0311). The 485176-168-R4-J1-PDC line was cultured in Panc media, which includes all 6C/Colon 1B media components plus 100 ng/mL human FGF-10 (Thermo Fisher Scientific, cat. 100-26), 500 nM SB-431542 (Selleckchem, cat. S1067), and gastrin (Tocris, cat. 3006).
[…]
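Also: spheroids exposed to drugs for seven days.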

Regarding `CC(=O)O[C@H]1C(=O)[C@@]2(C)[C@H]([C@H](OC(=O)c3ccccc3)[C@]3(O)C[C@H](OC(=O)[C@H](O)[C@@H](NC(=O)c4ccccc4)c4ccccc4)C(C)=C1C3(C)C)[C@]1(OC(C)=O)CO[C@@H]1C[C@@H]2O`, the viability, T/C reads like this: (compound 0.0316 µM) 84.1% and 80.2% and 104%; (compound 0.1 µM) 96.1% and 82.8% and 71.2%; (compound 0.316 µM) 82.9% and 80.8% and 85.8%; (compound 1 µM) 87.2% and 95.1% and 88.6%; (compound 3.16 µM) 99.2% and 101% and 86.8%; (compound 10 µM) 76.9% and 80.1% and 86.2%. Moreover, the IC50 (curve of compound) was > 10 µM.
Take `CN(C)c1ccc(Nc2c3ccc(NC(=O)CCN4CCCC4)cc3nc3cc(NC(=O)CCN4CCCC4)ccc23)cc1`: the viability, T/C is, setting by setting: (compound 0.316 µM) 65% [middle of 12 runs]; (compound 1 µM) 64.4% [middle of 12 runs]; (compound 3.16 µM) 61.7% [middle of 12 runs]; (compound 10 µM) 49.8% [middle of 12 runs]. Besides, the IC50 (compound alone, run of 02/26/2024) is > 10 µM and 4.02 µM and 5.57 µM.
In the case of `O=C(NO)c1cnc(N2CCN(S(=O)(=O)c3ccc4ccccc4c3)CC2)nc1`, the viability, T/C was 87% and 88.3% and 112% (compound 0.0316 µM); 108% and 125% and 89% (compound 0.1 µM); 68.1% and 77.6% and 63.9% (compound 0.316 µM); 1.97% and 0.86% and 8.3% (compound 1 µM); 0.67% and 0.79% and 4.97% (compound 3.16 µM); 1.35% and 1.12% and 3.62% (compound 10 µM). In addition, the IC50 (curve of compound) is 0.432 µM and 0.479 µM and 0.397 µM.
Consider `CC[C@@]1(O)C(=O)OCc2c1cc1n(c2=O)Cc2cc3c(CN(C)C)c(O)ccc3nc2-1`, for which the viability, T/C (compound 0.000999 µM) was 102% and 92.8% and 107%; the viability, T/C (compound 0.00316 µM) is 95.6% and 106% and 94.4%; the viability, T/C (compound 0.00999 µM) was 89.3% and 96.7% and 96.9%; the viability, T/C (compound 0.0316 µM) was 97.6% and 112% and 79.8%; the viability, T/C (compound 0.0999 µM) is 97.6% and 102% and 99.8%; the viability, T/C (compound 0.316 µM) is 90.9% and 107% and 98.6%. Further, the IC50 (curve of compound) was > 0.316 µM.
As to `Cc1cnc(CNC(=O)c2c(=O)c3ccc(N4CCCN(C)CC4)nc3n3c2sc2ccccc23)cn1`, the viability, T/C (compound 1 µM) was 85.5% [middle of 12 runs]; the viability, T/C (compound 3.16 µM) was 74.2% [middle of 12 runs]; the viability, T/C (compound 10 µM) is 68.8% [middle of 12 runs]. Further, the IC50 (compound alone, run of 02/20/2024) is > 10 µM.
For the compound `C#Cc1c(F)ccc2cc(O)cc(-c3ncc4c(N5CC6CCC(C5)N6)nc(OCC56CCCN5CC(F)C6)nc4c3F)c12` (centres undefined), the viability, T/C was 92.7% and 70.8% and 78.7% (compound 0.0316 µM); 73.1% and 96.4% and 89.9% (compound 0.1 µM); 66.8% and 78.3% and 71.8% (compound 0.316 µM); 87.9% and 83.5% and 69.9% (compound 1 µM); 86.9% and 49.7% and 45.9% (compound 3.16 µM); 68.2% and 36.4% and 44.5% (compound 10 µM). Moreover, the IC50 (curve of compound) is > 10 µM and 3.14 µM and 2.93 µM.
Regarding `C=CC(=O)N1CCN(c2nc(=O)n(-c3c(C)ccnc3C(C)C)c3nc(-c4c(O)cccc4F)c(F)cc23)C(C)C1` (centres undefined) + Cc1cnc(CNC(=O)c2c(=O)c3ccc(N4CCCN(C)CC4)nc3n3c2sc2ccccc23)cn1, the IC50 was > 10 µM (curve of first compound, second compound 0.0316 µM); > 10 µM (curve of first compound, second compound 0.1 µM); > 10 µM (curve of first compound, second compound 0.316 µM); > 10 µM (curve of first compound, second compound 1 µM); > 10 µM (curve of first compound, second compound 3.16 µM); > 10 µM (curve of first compound, second compound 10 µM). Besides, the viability, T/C is 82.3% (second compound 0.0316 µM, first compound 0.0316 µM); 75.1% (second compound 0.0316 µM, first compound 0.1 µM); 81.3% (second compound 0.0316 µM, first compound 0.316 µM); 83.5% (second compound 0.0316 µM, first compound 1 µM); 103% (second compound 0.0316 µM, first compound 3.16 µM); 95.8% (second compound 0.0316 µM, first compound 10 µM). The viability, T/C runs as follows: (second compound 0.1 µM, first compound 0.0316 µM) 93.6%; (second compound 0.1 µM, first compound 0.1 µM) 84.6%; (second compound 0.1 µM, first compound 0.316 µM) 94.9%; (second compound 0.1 µM, first compound 1 µM) 92.8%; (second compound 0.1 µM, first compound 3.16 µM) 98.4%; (second compound 0.1 µM, first compound 10 µM) 83.8%. The viability, T/C is 80.6% (second compound 0.316 µM, first compound 0.0316 µM); 86.3% (second compound 0.316 µM, first compound 0.1 µM); 82.6% (second compound 0.316 µM, first compound 0.316 µM); 83.6% (second compound 0.316 µM, first compound 1 µM); 83.3% (second compound 0.316 µM, first compound 3.16 µM); 86.7% (second compound 0.316 µM, first compound 10 µM). Moreover, the viability, T/C is, setting by setting: (second compound 1 µM, first compound 0.0316 µM) 76.3%; (second compound 1 µM, first compound 0.1 µM) 71%; (second compound 1 µM, first compound 0.316 µM) 88.9%; (second compound 1 µM, first compound 1 µM) 108%; (second compound 1 µM, first compound 3.16 µM) 79.5%; (second compound 1 µM, first compound 10 µM) 89.5%. Also, the viability, T/C is 75.1% (second compound 3.16 µM, first compound 0.0316 µM); 74.9% (second compound 3.16 µM, first compound 0.1 µM); 77.1% (second compound 3.16 µM, first compound 0.316 µM); 73.4% (second compound 3.16 µM, first compound 1 µM); 77.7% (second compound 3.16 µM, first compound 3.16 µM); 83.5% (second compound 3.16 µM, first compound 10 µM). Besides, the viability, T/C is 62.7% (second compound 10 µM, first compound 0.0316 µM); 68.9% (second compound 10 µM, first compound 0.1 µM); 75.6% (second compound 10 µM, first compound 0.316 µM); 61.6% (second compound 10 µM, first compound 1 µM); 80.3% (second compound 10 µM, first compound 3.16 µM); 68.8% (second compound 10 µM, first compound 10 µM).

Usually viability, T/C stands for the ratio of treated to control. A word on the IC50: it is the point on the concentration scale where inhibition reaches its midpoint.
